# Reference: paper PMC10107299, “Neutralizing the Impact of the Virulence Factor LecA from Pseudomonas aeruginosa on Human Cells with New Glycomimetic Inhibitors” (Angewandte Chemie (International Ed. in English), 2023)
# Key:
# [1] = In vivo pharmacokinetic study in mice; parameters: species or system CD-1 mice; conditions: 1 mg kg^−1 i.v.; for Cmax: male, CD-1, mouse, urine, iv
# Method: Encouraged by these promising in vitro results, an in vivo pharmacokinetic study was conducted for H2 and L2 in mice (1 mg kg^−1, i. v.) and in rats for L2 (10 mg kg^−1, i. v.). Compound concentrations were monitored in plasma and urine (Figure 6). H2 and L2 were cleared from mouse plasma within 1 h. Both compounds rapidly reached high concentrations in urine, several orders of magnitude above their respective in vitro LecA binding affinity. In fact, concentrations above the K ds were detected over the entire observation period of 5 h. […] In rats, higher amounts of L2 were detected both in plasma and urine, not solely corresponding to the 10‐fold increased dose. […] Importantly, high levels of L2 were present in rat urine even 24 h after administration.
# Pharmacokinetic studies in mice
# For pharmacokinetic experiments, outbred male CD-1 mice (Charles River, Germany), 4-weeks-old, were used. The animal studies were conducted in accordance with the recommendations of the European Community (Directive 86/609/EEC, 24 November 1986). All animal procedures were performed in strict accordance with the German regulations of the Society for Laboratory Animal Science (GV-SOLAS) and the European Health Law of the Federation of Laboratory Animal Science Associations (FELASA). Animals were excluded from further analysis if sacrifice was necessary according to the humane endpoints established by the ethical board. All experiments were approved by the ethical board of the Niedersächsisches Landesamt für Verbraucherschutz und Lebensmittelsicherheit, Oldenburg, Germany (33.19-42502-04-20/3522). L2 and H2 were dissolved in water and administered in individual PK studies (N = 2 per study) at 1 mg/kg intravenously. Up to 25 µl blood was collected from the lateral tail vein and time points t = 0.25, 0.5, 1 and 3 hours. At t = 5 hours animals were euthanized to collect blood. At time points t = 0.25, 0.5, 1, 3 and 5 hours spontaneous urine was collected as well. Whole blood was collected into Eppendorf tubes coated with 0.5 M EDTA and immediately spun down at […]
# 15870 x g for 10 min at 4 °C. […]
# Rats were provided with a catheter in the jugular vein 2 - 3 days prior to drug administration and blood sampling. According to national animal welfare guidelines, rats were treated once with Carprofen (5 mg/kg) directly after catheterization. Catheter was rinsed daily with K3EDTA. […]
# First, a calibration curve was prepared by spiking different concentrations of L2 and H2 into mouse plasma, rat plasma or mouse urine (matrix for mouse and rat PK samples) from CD-1 mice. […] Samples from the mouse PK study with H2 in mice and from the rat PK study with L2 were analyzed via HPLC-MS/MS as described in the HPLC-MS analysis section above. PK samples from the mouse PK study with L2 were analyzed using an Agilent 1290 […]
# [2] = tested on: H1299 cells; experiment: Cell proliferation (MTT) cytotoxicity assay; format: cell-based, human; conditions: 24 h; for Cytotoxicity on H1299 cells: 10–100 μM; for Inhibition of cell proliferation: 500 and 750 μM
# Method: Additionally, the cytotoxicity of sulfonated ligands K2 and L2 on H1299 cells was evaluated prior to the invasion assay (Figure S12). […]
# Cell proliferation (MTT) assay
# The MTT assay (MTT Cell Proliferation Kit, Roche Holding AG, Basel, Switzerland) was used to evaluate the cytotoxicity of inhibitors on H1299 cells. 3.5 x 10^4 cells per well were transferred to a 96-well plate with a U-bottom. The cells were centrifuged at 1600 x g for 3 min at room temperature. The cell pellet was resuspended in 100 μL of inhibitor solutions (1–750 µM) and transferred to a 96-well flat-bottomed plate. The cells were incubated for 24 h at 37 °C.
# Subsequently, 10 μL of MTT labelling solution was added to each well and the cells were incubated for another 4 h at 37 °C. Afterwards, 100 μL of the kit solubilization reagent were added to each well and the plate was incubated at 37 °C overnight. The next day, the absorbance of the samples was measured at 550 nm using a BioTek microplate reader (BioTek Instruments
SMILES,Time to clearance from mouse plasma [1],Cmax [1],Cytotoxicity on H1299 cells [2],Inhibition of cell proliferation [2]
O=C(CCc1ccc(O[C@@H]2O[C@H](CO)[C@H](O)[C@H](O)[C@H]2O)cc1)Nc1ccc(OCCOc2ccc(NC(=O)CCc3ccc(O[C@@H]4O[C@H](CO)[C@H](O)[C@H](O)[C@H]4O)cc3)cn2)nc1 [Compound H2],≤ 1 h,63 µM,–,–
Cc1ccc(NC(=O)CCc2ccc(O[C@@H]3O[C@H](CO)[C@H](O)[C@H](O)[C@H]3O)cc2)cc1S(=O)(=O)O [Compound K2],–,–,did not exhibit significant toxicity,> 50%
O=C(CCc1ccc(O[C@@H]2O[C@H](CO)[C@H](O)[C@H](O)[C@H]2O)cc1)Nc1ccc(CCc2ccc(NC(=O)CCc3ccc(O[C@@H]4O[C@H](CO)[C@H](O)[C@H](O)[C@H]4O)cc3)cc2S(=O)(=O)O)c(S(=O)(=O)O)c1 [Compound L2],≤ 1 h,13.4 µM,did not exhibit significant toxicity,> 50%
